Some test systems named below: OVCAR-8 ovarian; MDA-MB-231 breast; ACHN renal; A498 renal; NCI/ADR-RES ovarian; IGROV1 ovarian; U251 CNS; HCC-2998 colon; PC-3 prostate; K-562 leukemia; UACC-62 melanoma; CAKI-1 renal; SNB-75 CNS; HCT-15 colon; MALME-3M melanoma; EKVX NSCLC; SK-MEL-2 melanoma.
Common to all, as to assay: NCI anticancer screen, dose series, 48 h

This is an account of results in PubChem BioAssay (NCI).

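Step 1: Grow cells in 96-well plates. Step 2: Expose to compound for 48 hours at 5 concentrations. Step 3: Interpolate endpoints linearly; if unreached, use highest concentration. The concentration for full growth arrest is given as TGI.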

As to `Clc1nc(Cl)c(Cl)c(Cl)n1`, the TGI was determined as 80.2 µM in the experiment with OVCAR-8 ovarian; 41.3 µM in the experiment with MDA-MB-231 breast; 26 µM in the experiment on ACHN renal; 34.6 µM with A498 renal; 59.4 µM in the experiment on NCI/ADR-RES ovarian; 38.7 µM in the experiment with IGROV1 ovarian. Besides, the TGI came to 36.1 µM in the experiment on U251 CNS; 35.5 µM with HCC-2998 colon; 34.4 µM in the experiment on PC-3 prostate; 28 µM in the experiment on K-562 leukemia; 35.7 µM in the experiment with UACC-62 melanoma; 35.6 µM in the experiment with CAKI-1 renal. The TGI in the experiment on SNB-75 CNS is 33.8 µM; in the experiment with HCT-15 colon it was 38.1 µM; in the experiment on MALME-3M melanoma, 35.9 µM; with EKVX NSCLC it was 94.4 µM.
For `Cc1ccnc2[nH]c(-c3cccc(Cl)c3)cc(=O)c12`, the TGI is more than 100 µM with OVCAR-8 ovarian; 0.0861 µM in the experiment on MDA-MB-231 breast; more than 100 µM with ACHN renal; more than 100 µM in the experiment on A498 renal; more than 100 µM in the experiment with NCI/ADR-RES ovarian; more than 100 µM in the experiment on IGROV1 ovarian. Also, the TGI with HCC-2998 colon is more than 43 µM; in the experiment on PC-3 prostate, more than 100 µM; with UACC-62 melanoma it was more than 100 µM; with CAKI-1 renal, more than 47.8 µM; in the experiment on HCT-15 colon, more than 100 µM; in the experiment with EKVX NSCLC, more than 100 µM. The compound further returned a TGI in the experiment on SK-MEL-2 melanoma of more than 100 µM.
For the compound `CC1(C)N=C(C(N)=O)c2ncn(CCO)c2N1`, the TGI in the experiment on OVCAR-8 ovarian, with MDA-MB-231 breast, in the experiment on ACHN renal, in the experiment on A498 renal, with NCI/ADR-RES ovarian and with IGROV1 ovarian was more than 100 µM each time. The TGI with U251 CNS, with HCC-2998 colon, with PC-3 prostate, with K-562 leukemia, in the experiment on UACC-62 melanoma and in the experiment with CAKI-1 renal was more than 100 µM in each case. For the same compound, the TGI in the experiment with HCT-15 colon, in the experiment on MALME-3M melanoma and in the experiment with EKVX NSCLC was more than 100 µM throughout.
Turning to `COC(=O)c1ccccc1C#CC#Cc1ccccc1C(=O)OC`, the TGI in the experiment on OVCAR-8 ovarian, with MDA-MB-231 breast, in the experiment with ACHN renal, in the experiment with A498 renal, in the experiment with NCI/ADR-RES ovarian and in the experiment on IGROV1 ovarian was more than 10 µM throughout. The TGI in the experiment on U251 CNS, in the experiment with HCC-2998 colon, in the experiment on PC-3 prostate, in the experiment with K-562 leukemia, in the experiment with UACC-62 melanoma and in the experiment with CAKI-1 renal was more than 10 µM throughout. The TGI in the experiment with HCT-15 colon, with MALME-3M melanoma, in the experiment on EKVX NSCLC and in the experiment with SK-MEL-2 melanoma was more than 10 µM throughout.
`CC(C)[C@@H]1CC[C@@H](C)C[C@H]1OC(=O)/C=C1/C2C=CC(O2)C1C(=O)O[C@@H]1C[C@H](C)CC[C@H]1C(C)C` (stereo partly specified): the TGI in the experiment on OVCAR-8 ovarian, in the experiment on MDA-MB-231 breast, with ACHN renal, in the experiment on A498 renal, in the experiment with NCI/ADR-RES ovarian and in the experiment on IGROV1 ovarian was more than 100 µM each time. In addition, the TGI in the experiment with U251 CNS, in the experiment with HCC-2998 colon, in the experiment on PC-3 prostate, in the experiment with K-562 leukemia, with UACC-62 melanoma and in the experiment with CAKI-1 renal was more than 100 µM each time. For the same compound, the TGI in the experiment with SNB-75 CNS, with HCT-15 colon, with MALME-3M melanoma and in the experiment on EKVX NSCLC was more than 100 µM in each case.
As to `c1ccc(C2=Nc3nc4ccccc4n3C(c3ccccc3)C2)cc1` (stereo unspecified), the TGI in the experiment on OVCAR-8 ovarian, with MDA-MB-231 breast, in the experiment on ACHN renal, in the experiment with A498 renal, in the experiment on NCI/ADR-RES ovarian and with IGROV1 ovarian was more than 100 µM throughout. Besides, the TGI with U251 CNS, in the experiment with PC-3 prostate, with K-562 leukemia, with UACC-62 melanoma, with CAKI-1 renal and with SNB-75 CNS was more than 100 µM throughout. The TGI in the experiment with HCT-15 colon, in the experiment on MALME-3M melanoma, in the experiment on EKVX NSCLC and with SK-MEL-2 melanoma was more than 100 µM each time.
On to `C=CC1ON(Cc2ccccc2)CCc2cc(OC)c(OC)cc21` (stereo unspecified), for which the TGI was more than 100 µM in the experiment on OVCAR-8 ovarian; more than 100 µM in the experiment with MDA-MB-231 breast; more than 100 µM in the experiment on ACHN renal; 67.8 µM with A498 renal; more than 100 µM with NCI/ADR-RES ovarian; more than 100 µM in the experiment on IGROV1 ovarian. Further, the TGI in the experiment on U251 CNS, with HCC-2998 colon, in the experiment with PC-3 prostate, with K-562 leukemia, with UACC-62 melanoma and with CAKI-1 renal was more than 100 µM in each case. Further, the TGI in the experiment on SNB-75 CNS, in the experiment on HCT-15 colon, in the experiment on MALME-3M melanoma and in the experiment with EKVX NSCLC was more than 100 µM throughout.
As to `O=C1CSc2nc3ccccc3n2/C=N\N1`, the TGI in the experiment on OVCAR-8 ovarian, in the experiment with MDA-MB-231 breast, in the experiment on ACHN renal, in the experiment on A498 renal, with NCI/ADR-RES ovarian and in the experiment with U251 CNS was more than 100 µM in each case. Besides, the TGI with HCC-2998 colon, with PC-3 prostate, with K-562 leukemia, in the experiment on UACC-62 melanoma, in the experiment on CAKI-1 renal and in the experiment on HCT-15 colon was more than 100 µM throughout. This compound showed a TGI in the experiment on SK-MEL-2 melanoma of more than 100 µM.
For `COc1cc(C2SCC(=O)N2c2ccc(-n3c(-c4ccccc4)nc4ccccc4c3=O)cc2)ccc1O` (stereo unspecified), the TGI with OVCAR-8 ovarian, in the experiment with MDA-MB-231 breast, in the experiment with ACHN renal, in the experiment with A498 renal, in the experiment on NCI/ADR-RES ovarian and in the experiment with U251 CNS was more than 100 µM each time. Also, the TGI with HCC-2998 colon, in the experiment with PC-3 prostate, in the experiment on K-562 leukemia, in the experiment with UACC-62 melanoma, in the experiment with CAKI-1 renal and in the experiment with HCT-15 colon was more than 100 µM each time. For the same compound, the TGI with MALME-3M melanoma, with EKVX NSCLC and with SK-MEL-2 melanoma was more than 100 µM in each case.
